Experimental data reported in publication PMC10098121, “Amphipathic barbiturates as marine product mimics with cytolytic and immunogenic effects on head and neck squamous cell carcinoma cell lines” (Frontiers in Pharmacology, 2023).

Key:
Format in all cases: cell-based, human
[1] = system: UT-SCC-24A cells; experiment: Flow cytometric detection of apoptosis (Annexin V/PI); conditions: 24 h
Protocol: HSC-3 and UT-SCC-24A cells were seeded, 300,000 cells/well, in 6-well plates and left to adhere overnight. The media was then removed and replaced by 2 ml complete DMEM/F-12 containing 5, 7.5, 10 or 20 µM of MPM-2:0, MPM-6:0, MPM-3:2 or MPM-4:2, or 50 µM cisplatin. Some cells were left untreated. The cells were then incubated for 24 h. Next, the cell supernatants were collected before the cells were trypsinized and spun down with the supernatants. For the staining, an apoptosis detection kit was used (#88-8005-74, Thermo Fisher Scientific). The cells were washed once in PBS and once in 1x binding buffer before being incubated with FITC labeled Annexin V diluted 1:25 in 1 × binding buffer for 15 min. Next the cells were washed in 1 × binding buffer before being incubated with PI diluted 1:100 in 1 × binding buffer for at least 5 min before analysis was performed on the LSR Fortessa (BD Biosciences, CA, United States). Analyses were performed in FlowJo™ v.10 (https://www.flowjo.com/).

[2] = system: cell surface calreticulin on UT-SCC-24A cells; experiment: Flow cytometric detection of cell surface calreticulin; conditions: 24 h, cisplatin 50 µM, MPMs 5-20 µM, vs untreated
Protocol: This procedure was based on a published method ([Liu et al., 2020]), but was performed with some modifications. Briefly, HSC-3 and UT-SCC-24A cells were seeded, 300,000 cells/well, in 6-well plates and left to adhere overnight. The media was then removed and replaced by 2 ml complete DMEM/F-12 containing 5, 7.5, 10 or 20 µM of MPM-2:0, MPM-6:0, MPM-3:2 or MPM-4:2, or 50 µM cisplatin. Some cells were left untreated. The cells were then incubated for 24 h. Next, the cell supernatants were collected before the cells were trypsinized and spun down with the supernatants. The cells were then washed in PBS before being incubated with the viability dye Zombie Violet (#423114, BioLegend, San Diego, CA, United States) diluted 1:500 in PBS for 20 min. Next, the cells were incubated with an anti-calreticulin antibody (#ab2907, Abcam) diluted 1:100 in FACS buffer (2%BSA in PBS) for 30 min. The cells were then fixed in 4% formaldehyde for 15 min and washed twice in FACS buffer before being incubated with the secondary antibody (#A11034, Thermo Fisher Scientific) diluted 1:250 in FACS buffer for 30 min. The cells were washed in FACS buffer and analyzed on a LSR Fortessa (BD Biosciences) within 1 week. Analyses were performed in FlowJo™ v.10 (https://www.flowjo.com/).

[3] = system: NOF (normal oral fibroblasts); experiment: High throughput drug screening (CellTiter-Glo, DSS); conditions: for drug sensitivity score (DSS): 72 h, 10-100,000 nM, myogel, non-irradiated; for delta DSS (ΔDSS): DSS irradiated (2 Gy) minus DSS non-irradiated, >5 synergy, <–5 antagonism
Protocol: (§1) The MPMs were screened against a panel of […] different cell lines (HSC-3, UT-SCC-8, UT-SCC-24A, UT-SCC-24B, UT-SCC-42A, UT-SCC-42B and NOF) at the High Throughput Biomedicine Unit (HTB) at the Institute for Molecular Medicine Finland (FIMM). On day 1, black-walled 384-well plates were coated with 5 µl diluted myogel (0.5 mg/ml) per well using an automated reagent dispenser (MultiFlo FX, BioTek, Winooski, VT, United States). On day 2, 500 cells per well were seeded in 20 µl of complete media using the MultiFlo FX (BioTek), and the cells were left to adhere overnight. On day 3, the MPMs, cisplatin, DMSO and Benzethonium chloride were added to the cells using an automatic liquid handler (Echo 550, Labcyte Inc., San Jose, CA, United States). Cisplatin and the MPMs were added to yield five different concentrations in a ten-fold dilution series ranging from 10 to 100,000 nM. Each concentration was tested in triplicate wells. DMSO (0.1%) and benzethonium chloride (100 µM) served as negative and positive control, respectively. Three hours later, some of the plates were irradiated with 2 Gy in a gamma irradiator (OB29/4, STS, Braunschweig, Germany). All plates were taken to the irradiation room to ensure similar handling of the plates. 72 h later, the plates were cooled to room temperature before 25 µl of CellTiter-Glo 2.0 reagent (Promega, Madison, WI, USA) was added to each well using the MultiFlo FX (BioTek). Next, the plates were centrifuged for 5 min at 1,000 rpm before the luminescence signal was measured with the PHERAstar FS HT reader (BMG LABTECH GmbH, Ortenberg, Germany). The raw data was analyzed with the Breeze software (https://breeze.fmm.fi), which normalized the luminescence signal from treated cells against the signal from negative and positive control cells to calculate the percentage of inhibition and generate dose-response curves, which were then used to calculate drug sensitivity scores (DSS). The DSS is a parameter which combines the IC50, the slope of the dose-response curve, and the minimum and maximum responses into a single metric, as previously described ([Yadav et al., 2014]). Quality control was performed by calculation of the Z′-factor, which was >0.7 for all cell lines, indicating high quality of the assay ([Zhang et al., 1999]).

[4] = system: UT-SCC-106A; experiment: as above; conditions: for drug sensitivity score (DSS): 72 h, 10-100,000 nM, myogel, non-irradiated; for delta DSS (ΔDSS): DSS irradiated (2 Gy) minus DSS non-irradiated, >5 synergy, <–5 antagonism
Protocol: as §1

[5] = system: UT-SCC-24A; experiment: as above; conditions: for drug sensitivity score (DSS): 72 h, 10-100,000 nM, myogel, non-irradiated; for delta DSS (ΔDSS): DSS irradiated (2 Gy) minus DSS non-irradiated, >5 synergy, <–5 antagonism
Protocol: as §1

[6] = system: UT-SCC-42B; experiment: as above; conditions: for drug sensitivity score (DSS): 72 h, 10-100,000 nM, myogel, non-irradiated; for delta DSS (ΔDSS): DSS irradiated (2 Gy) minus DSS non-irradiated, >5 synergy, <–5 antagonism
Protocol: as §1

[7] = system: seven HNSCC cell lines and one normal oral fibroblast cell line (NOF); experiment: High throughput drug screening, statements on the whole panel; conditions: 72 h, DSS
Protocol: as §1

`N.N.[Cl][Pt][Cl]` [Cisplatin, cisplatin, reference compound] was tested, and the “apoptotic (Annexin V+/PI−) population (in words)” value ([1]; cisplatin 50 µM, MPMs 5-20 µM) was “small, but clearly apoptotic (Annexin V+/PI−) population”, the “cell surface expression of calreticulin (in words)” value [2] was “did not induce any cell surface expression of calreticulin” and the “drug sensitivity score (DSS)” value [3] was 9,6. The “delta DSS (ΔDSS)” value [3] was -1,9, the “drug sensitivity score (DSS)” value [4] was 9 and the “delta DSS (ΔDSS)” value [4] was 0,3. For the same compound, the “drug sensitivity score (DSS)” value [5] was 8,9, the “delta DSS (ΔDSS)” value [5] was -0,9 and the “drug sensitivity score (DSS)” value [6] was 7,7. For the same compound, the “delta DSS (ΔDSS)” value [6] was -0,6.
In the case of `NCCN1C(=O)N(CCN)C(=O)C(CCCc2ccccc2)(CCCc2ccccc2)C1=O` [MPM-2:0], the “potency / effect on viability over the cell line panel (in words)” value [7] is reported as “had the highest DSS”, the “drug sensitivity score (DSS)” value [3] is reported as 18,3 and the “delta DSS (ΔDSS)” value [3] is reported as -0,7. For the same compound, the “drug sensitivity score (DSS)” value [4] was 18, the “delta DSS (ΔDSS)” value [4] was -0,5 and the “drug sensitivity score (DSS)” value [5] was 18,7. For the same compound, the “delta DSS (ΔDSS)” value [5] was -0,7, the “drug sensitivity score (DSS)” value [6] was 18,7 and the “delta DSS (ΔDSS)” value [6] was -0,1.
For `CN(C)CCCN1C(=O)N(CCCN(C)C)C(=O)C(CCCc2ccccc2)(CCCc2ccccc2)C1=O` [MPM-3:2], the “Annexin V−/PI+ population (in words)” value [1] was “induced a large population of Annexin V−/PI + UT-SCC-24A cells”, the “potency / effect on viability over the cell line panel (in words)” value [7] was “had the highest DSS” and the “drug sensitivity score (DSS)” value [3] was 19,3. The “delta DSS (ΔDSS)” value [3] was -1,6, the “drug sensitivity score (DSS)” value [4] was 18,6 and the “delta DSS (ΔDSS)” value [4] was -0,2. The “drug sensitivity score (DSS)” value [5] was 17,9, the “delta DSS (ΔDSS)” value [5] was -0,2 and the “drug sensitivity score (DSS)” value [6] was 15,7. For the same compound, the “delta DSS (ΔDSS)” value [6] was 0,3.
For `CN(C)CCCCN1C(=O)N(CCCCN(C)C)C(=O)C(CCCc2ccccc2)(CCCc2ccccc2)C1=O` [MPM-4:2], the “Annexin V−/PI+ population (in words)” value [1] was “induced a large population of Annexin V−/PI + UT-SCC-24A cells”, the “potency / effect on viability over the cell line panel (in words)” value [7] was “had the highest DSS” and the “drug sensitivity score (DSS)” value [3] was 22,6. For the same compound, the “delta DSS (ΔDSS)” value [3] was 1,2, the “drug sensitivity score (DSS)” value [4] was 19,5 and the “delta DSS (ΔDSS)” value [4] was -0,2. The “drug sensitivity score (DSS)” value [5] was 18,4, the “delta DSS (ΔDSS)” value [5] was -0,6 and the “drug sensitivity score (DSS)” value [6] was 16,6. The “delta DSS (ΔDSS)” value [6] was -0,4.
With `NCCCCCCN1C(=O)N(CCCCCCN)C(=O)C(CCCc2ccccc2)(CCCc2ccccc2)C1=O` [MPM-6:0] the “potency / effect on viability over the cell line panel (in words)” value [7] was “had the highest DSS”, the “cell surface expression of calreticulin (in words)” value [2] was “statistically significant levels of cell surface calreticulin” and the “drug sensitivity score (DSS)” value [3] was 18. The “delta DSS (ΔDSS)” value [3] was -0,3, the “drug sensitivity score (DSS)” value [4] was 17,9 and the “delta DSS (ΔDSS)” value [4] was -0,4. For the same compound, the “drug sensitivity score (DSS)” value [5] was 18,6, the “delta DSS (ΔDSS)” value [5] was -0,2 and the “drug sensitivity score (DSS)” value [6] was 18,4. The “delta DSS (ΔDSS)” value [6] was -0,5.
